Data from patent US12606544B2, “JAK1 selective kinase inhibitor” (DIZAL (JIANGSU) PHARMACEUTICAL CO., LTD., priority 2019, dated 2026).

Assays:
JAK1 = target: T1, JAK1 (Homo sapiens, UniProt P23458); assay: Lance Ultra Kinase Assay, recombinant JAK1; type: biochemical; details: 5 mM ATP
T1 construct: purchased Carna Biosciences
Protocol: (§1) Recombinant JAK1, JAK2, JAK3 and TYK2 purchased from Carna Biosciences. The inhibition potency of compounds against JAK1, JAK2, JAK3 and TYK2 was assessed using Lance Ultra Kinase Assay.
(§2) In brief, recombinant kinases were pre-incubated in the presence or absence of compound at room temperature for 15 minutes. The reaction was initiated by the addition of 5 mM ATP and substrate peptide which could be phosphorylated by kinases in the reaction. After 60 minutes incubation, the reaction was stopped by the addition of the detection reagent mix containing EDTA. The fluorescence was measured at 615 nm and 665 nm, respectively with excitation wavelength at 320 nm. The calculated signal ratio of 665 nm/615 nm is proportional to the kinase activity.

JAK3 = target: T2, JAK3 (Homo sapiens, UniProt P52333); assay: Lance Ultra Kinase Assay, recombinant JAK3; type: biochemical; details: 5 mM ATP
T2 construct: purchased Carna Biosciences
T2 sequence (P52333 1-1124): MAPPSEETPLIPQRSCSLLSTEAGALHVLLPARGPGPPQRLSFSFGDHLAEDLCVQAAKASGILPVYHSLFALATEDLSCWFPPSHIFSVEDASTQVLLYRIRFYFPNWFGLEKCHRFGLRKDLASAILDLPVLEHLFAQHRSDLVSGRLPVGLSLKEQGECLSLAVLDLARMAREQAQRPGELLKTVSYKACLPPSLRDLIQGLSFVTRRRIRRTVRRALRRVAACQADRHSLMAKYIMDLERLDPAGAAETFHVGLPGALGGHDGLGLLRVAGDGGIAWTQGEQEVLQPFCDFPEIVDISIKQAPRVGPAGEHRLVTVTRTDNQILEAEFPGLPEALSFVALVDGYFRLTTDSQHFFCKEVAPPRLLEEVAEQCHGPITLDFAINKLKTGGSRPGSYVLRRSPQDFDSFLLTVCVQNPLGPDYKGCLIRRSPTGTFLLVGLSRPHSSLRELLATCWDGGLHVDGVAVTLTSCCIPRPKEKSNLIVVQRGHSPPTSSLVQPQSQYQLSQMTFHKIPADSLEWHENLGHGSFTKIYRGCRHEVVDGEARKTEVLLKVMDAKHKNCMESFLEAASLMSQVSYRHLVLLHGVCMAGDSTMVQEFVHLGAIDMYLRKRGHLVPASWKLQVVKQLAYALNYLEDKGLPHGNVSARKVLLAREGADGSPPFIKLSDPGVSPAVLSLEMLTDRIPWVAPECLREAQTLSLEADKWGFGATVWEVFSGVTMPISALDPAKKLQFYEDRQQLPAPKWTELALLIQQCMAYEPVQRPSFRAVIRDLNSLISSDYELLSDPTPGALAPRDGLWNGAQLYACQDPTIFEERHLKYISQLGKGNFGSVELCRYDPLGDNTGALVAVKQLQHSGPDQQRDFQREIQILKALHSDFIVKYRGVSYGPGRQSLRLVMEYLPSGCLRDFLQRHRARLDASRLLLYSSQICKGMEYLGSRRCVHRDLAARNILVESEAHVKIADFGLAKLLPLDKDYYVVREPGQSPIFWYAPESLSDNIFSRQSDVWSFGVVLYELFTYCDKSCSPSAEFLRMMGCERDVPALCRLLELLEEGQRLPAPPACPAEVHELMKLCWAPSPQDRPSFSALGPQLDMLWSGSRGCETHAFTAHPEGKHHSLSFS
Protocol: as §1, §2

TYK2 = target: T3, TYK2 (Homo sapiens, UniProt P29597); assay: Lance Ultra Kinase Assay, recombinant TYK2; type: biochemical; details: 5 mM ATP
T3 construct: purchased Carna Biosciences
Protocol: as §1, §2

phosphorylation of STAT6 = assay: Cellular p-STAT6 assay, IL-13 stimulated THP-1 cells, flow cytometry; type: cell-based; details: Homo sapiens, THP-1, THP-1 cells, IL-13 10 ng/ml; read-out: pSTAT6 IC50
Protocol: To detect phosphorylated STAT6 (pSTAT6), THP-1 cells were harvested by centrifugation at 250 g for 5 min and resuspended in assay medium (RPMI1640+10% FBS) to 2×10^5 cells/well. Test compounds were applied to assay plates in serial dilution from 1 μM to 0.3 nM in DMSO. THP-1 cells were incubated with serial diluted compounds for 60 min at room temperature, followed by stimulation of interleukin (IL-13, 10 ng/ml) for 30 min, fixed in Cytofix buffer (BD Biosciences), and permeabilized in 90% methanol on ice. PE anti-pSTAT6 (BD Biosciences) antibodies were stained for 60 min at room temperature before being analyzed by flow cytometry. In the assay the compounds were thus diluted and dose-response curves for inhibition of the signal determine the IC50 for the compounds.

JAK2 = target: T4, JAK2 (Homo sapiens, UniProt O60674); assay: Lance Ultra Kinase Assay, recombinant JAK2; type: biochemical; details: 5 mM ATP
T4 construct: purchased Carna Biosciences
Protocol: as §1, §2

T1 sequence (P23458 whole entry): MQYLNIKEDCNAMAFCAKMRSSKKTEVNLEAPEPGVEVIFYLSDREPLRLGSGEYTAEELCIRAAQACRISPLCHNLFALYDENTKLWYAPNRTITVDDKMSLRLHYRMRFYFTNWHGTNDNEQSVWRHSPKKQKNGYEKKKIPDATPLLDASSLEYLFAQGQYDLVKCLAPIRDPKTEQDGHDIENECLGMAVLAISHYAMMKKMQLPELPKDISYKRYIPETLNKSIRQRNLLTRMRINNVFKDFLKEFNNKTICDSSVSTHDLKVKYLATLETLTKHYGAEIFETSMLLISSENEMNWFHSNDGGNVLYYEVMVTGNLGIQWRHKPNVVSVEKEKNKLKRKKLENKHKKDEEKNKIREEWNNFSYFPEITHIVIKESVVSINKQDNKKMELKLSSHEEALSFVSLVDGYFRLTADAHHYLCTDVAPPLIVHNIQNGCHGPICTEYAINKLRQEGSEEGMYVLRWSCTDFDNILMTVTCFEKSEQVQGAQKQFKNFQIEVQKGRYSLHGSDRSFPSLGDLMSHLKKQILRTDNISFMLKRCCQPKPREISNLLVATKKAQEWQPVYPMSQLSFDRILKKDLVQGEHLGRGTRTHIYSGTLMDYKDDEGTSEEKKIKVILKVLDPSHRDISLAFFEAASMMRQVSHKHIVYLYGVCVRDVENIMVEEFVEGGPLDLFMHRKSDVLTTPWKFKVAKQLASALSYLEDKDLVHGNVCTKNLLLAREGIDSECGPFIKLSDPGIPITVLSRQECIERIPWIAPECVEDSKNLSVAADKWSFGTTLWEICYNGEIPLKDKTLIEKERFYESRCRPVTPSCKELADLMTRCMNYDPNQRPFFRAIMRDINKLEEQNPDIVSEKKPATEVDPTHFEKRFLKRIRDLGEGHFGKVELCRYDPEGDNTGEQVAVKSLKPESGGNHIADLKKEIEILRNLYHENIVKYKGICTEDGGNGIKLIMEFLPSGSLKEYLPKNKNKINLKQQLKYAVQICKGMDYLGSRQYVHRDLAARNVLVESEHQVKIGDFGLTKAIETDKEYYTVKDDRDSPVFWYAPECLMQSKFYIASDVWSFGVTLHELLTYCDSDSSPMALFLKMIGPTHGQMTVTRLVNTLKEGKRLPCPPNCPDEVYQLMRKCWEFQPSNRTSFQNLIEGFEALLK
T4 sequence (O60674 whole entry): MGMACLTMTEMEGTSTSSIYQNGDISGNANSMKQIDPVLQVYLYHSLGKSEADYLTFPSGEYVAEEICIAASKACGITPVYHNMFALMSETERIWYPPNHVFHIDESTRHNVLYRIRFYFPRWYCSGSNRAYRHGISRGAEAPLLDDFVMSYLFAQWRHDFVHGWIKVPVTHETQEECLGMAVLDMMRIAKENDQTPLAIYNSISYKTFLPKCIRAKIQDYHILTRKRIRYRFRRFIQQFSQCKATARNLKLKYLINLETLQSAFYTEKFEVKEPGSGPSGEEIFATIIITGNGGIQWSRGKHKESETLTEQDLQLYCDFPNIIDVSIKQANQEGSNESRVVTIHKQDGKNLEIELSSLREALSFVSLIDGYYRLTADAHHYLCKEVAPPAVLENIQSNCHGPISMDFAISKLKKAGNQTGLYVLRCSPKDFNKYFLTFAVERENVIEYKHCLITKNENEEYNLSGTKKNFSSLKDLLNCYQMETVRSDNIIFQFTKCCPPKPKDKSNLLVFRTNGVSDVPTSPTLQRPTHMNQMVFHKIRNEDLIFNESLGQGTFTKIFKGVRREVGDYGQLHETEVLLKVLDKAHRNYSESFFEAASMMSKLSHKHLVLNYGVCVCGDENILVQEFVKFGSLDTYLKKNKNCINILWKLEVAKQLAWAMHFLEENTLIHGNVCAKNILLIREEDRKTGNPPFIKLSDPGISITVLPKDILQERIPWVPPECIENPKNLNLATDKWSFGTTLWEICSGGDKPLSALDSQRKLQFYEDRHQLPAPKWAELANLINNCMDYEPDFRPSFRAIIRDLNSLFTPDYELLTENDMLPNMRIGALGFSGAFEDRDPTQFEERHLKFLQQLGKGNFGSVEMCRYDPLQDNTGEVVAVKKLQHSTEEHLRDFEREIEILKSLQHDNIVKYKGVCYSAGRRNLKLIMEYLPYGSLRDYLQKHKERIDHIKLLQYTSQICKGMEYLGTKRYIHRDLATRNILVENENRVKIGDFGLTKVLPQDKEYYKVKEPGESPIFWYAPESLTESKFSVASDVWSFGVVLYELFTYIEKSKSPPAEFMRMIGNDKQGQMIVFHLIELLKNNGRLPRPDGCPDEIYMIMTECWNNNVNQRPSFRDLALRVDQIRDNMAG
T3 sequence (P29597 whole entry): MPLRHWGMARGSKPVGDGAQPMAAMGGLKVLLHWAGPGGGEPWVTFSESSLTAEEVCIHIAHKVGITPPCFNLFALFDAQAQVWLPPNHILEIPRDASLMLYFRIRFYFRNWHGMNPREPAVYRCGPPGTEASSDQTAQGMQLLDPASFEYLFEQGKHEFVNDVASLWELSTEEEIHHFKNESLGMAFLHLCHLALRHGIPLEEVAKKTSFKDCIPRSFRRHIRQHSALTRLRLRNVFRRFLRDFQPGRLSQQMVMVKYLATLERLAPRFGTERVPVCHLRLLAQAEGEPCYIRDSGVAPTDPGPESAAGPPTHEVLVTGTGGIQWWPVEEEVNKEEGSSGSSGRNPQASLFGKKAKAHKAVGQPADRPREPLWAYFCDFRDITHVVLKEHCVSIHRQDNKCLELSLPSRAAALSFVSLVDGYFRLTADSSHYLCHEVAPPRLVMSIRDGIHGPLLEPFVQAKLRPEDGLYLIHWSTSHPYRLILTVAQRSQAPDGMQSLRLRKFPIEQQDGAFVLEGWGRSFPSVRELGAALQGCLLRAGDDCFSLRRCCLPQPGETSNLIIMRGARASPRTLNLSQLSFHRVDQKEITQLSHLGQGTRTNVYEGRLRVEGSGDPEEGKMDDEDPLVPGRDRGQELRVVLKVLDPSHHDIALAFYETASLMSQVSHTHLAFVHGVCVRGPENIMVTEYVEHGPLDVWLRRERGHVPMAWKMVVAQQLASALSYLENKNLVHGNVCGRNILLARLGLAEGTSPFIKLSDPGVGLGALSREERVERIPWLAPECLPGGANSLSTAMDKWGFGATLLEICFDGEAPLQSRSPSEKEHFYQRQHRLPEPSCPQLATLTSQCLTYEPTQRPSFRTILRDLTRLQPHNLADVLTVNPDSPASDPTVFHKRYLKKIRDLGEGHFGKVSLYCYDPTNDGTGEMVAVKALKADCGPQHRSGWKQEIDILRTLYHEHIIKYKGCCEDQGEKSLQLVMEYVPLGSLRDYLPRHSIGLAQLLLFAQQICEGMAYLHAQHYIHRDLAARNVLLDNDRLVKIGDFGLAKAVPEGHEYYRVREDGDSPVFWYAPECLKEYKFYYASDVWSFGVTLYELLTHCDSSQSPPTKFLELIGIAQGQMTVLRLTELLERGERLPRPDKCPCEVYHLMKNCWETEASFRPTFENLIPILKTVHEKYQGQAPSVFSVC

Row | SMILES | IC50 (JAK1) | IC50 (JAK3) | IC50 (TYK2) | IC50 (phosphorylation of STAT6) | IC50 (JAK2)
1 | CNC(=O)Cc1ccc(Nc2ncc(F)c(-c3c[nH]c4c(NC(=O)[C@@H](COC)N5CCN(C)CC5)cccc34)n2)cn1 [Example 39, (R)-N-(3-(5-fluoro-2-((6-(2-(methylamino)-2-oxoethyl)pyridin-3-yl)amino)pyrimidin-4-yl)-1H-indol-7-yl)-3-methoxy-2-(4-methylpiperazin-1-yl)propanamide] | 0.23 nM | > 10000 nM | 974 nM | 11.9 nM | 316 nM
2 | COC[C@H](C(=O)Nc1cccc2c(-c3nc(Nc4ccc5c(C(=O)OC)n[nH]c5c4)ncc3F)c[nH]c12)N1CCN(C)CC1 [Example 44, methyl (R)-6-((5-fluoro-4-(7-(3-methoxy-2-(4-methylpiperazin-1-yl)propanamido)-1H-indol-3-yl)pyrimidin-2-yl)amino)-1H-indazole-3-carboxylate] | 0.27 nM | > 10000 nM | > 10000 nM | 13.2 nM | 147 nM
3 | COC[C@H](C(=O)Nc1cccc2c(-c3nc(Nc4ccc5c(CO)ncn5c4)ncc3F)c[nH]c12)N1CCN(C)CC1 [Example 46, (R)-N-(3-(5-fluoro-2-((1-(hydroxymethyl)imidazo[1,5-a]pyridin-6-yl)amino)pyrimidin-4-yl)-1H-indol-7-yl)-3-methoxy-2-(4-methylpiperazin-1-yl)propanainide] | 1.52 nM | > 10000 nM | > 10000 nM | 13.5 nM | 322 nM
4 | COC[C@H](C(=O)Nc1cccc2c(-c3nc(Nc4ccc5ocnc5c4)ncc3F)c[nH]c12)N1CCN(C)CC1 [Example 51, (R)-N-(3-(2-(benzo[d]oxazol-5-ylamino)-5-fluoropyrimidin-4-yl)-1H-indol-7-yl)-3-methoxy-2-(4-methylpiperazin-1-yl)propanamide] | 0.23 nM | > 10000 nM | 1400 nM | 14.9 nM | 186 nM
5 | COC[C@H](C(=O)Nc1cccc2c(-c3nc(Nc4ccc(NC(=O)OC)nc4)ncc3F)c[nH]c12)N1CCN(C)CC1 [Example 52, methyl (R)-(5-((5-fluoro-4-(7-(3-methoxy-2-(4-methylpiperazin-1-yl)propanamido)-1H-indol-3-yl)pyrimidin-2-yl)amino)pyridin-2-yl)carbamate] | 0.43 nM | > 10000 nM | 2170 nM | 15 nM | 363 nM
6 | COC[C@H](C(=O)Nc1cccc2c(-c3nc(Nc4ccc(OCc5ncco5)nc4)ncc3F)c[nH]c12)N1CCN(C)CC1 [Example 54, (R)-N-(3-(5-fluoro-2-((6-(oxazol-2-ylmethoxy)pyridin-3-yl)amino)pyrimidin-4-yl)-1H-indol-7-yl)-3-methoxy-2-(4-methylpiperazin-1-yl)propanamide] | 0.86 nM | > 10000 nM | 4880 nM | 15.3 nM | 219 nM
7 | COC[C@H](C(=O)Nc1cccc2c(-c3nc(Nc4cccc(CCC(=O)OC)n4)ncc3F)c[nH]c12)N1CCN(C)CC1 [Example 55, methyl (R)-3-(6-((5-fluoro-4-(7-(3-methoxy-2-(4-methylpiperazin-1-yl)propanamido)-1H-indol-3-yl)pyrimidin-2-yl)amino)pyridin-2-yl)propanoate] | 12.8 nM | > 10000 nM | > 10000 nM | 15.3 nM | 2710 nM

These reach a lower IC50 (JAK1). Values come first.

Row | IC50 (JAK1) | IC50 (JAK3) | IC50 (TYK2) | IC50 (phosphorylation of STAT6) | IC50 (JAK2) | SMILES
8 | 0.22 nM | > 10000 nM | 1430 nM | 12.6 nM | 110 nM | COC[C@H](C(=O)Nc1cccc2c(-c3nc(Nc4ccc5[nH]ccc5c4)ncc3F)c[nH]c12)N1CCN(C)CC1 [Example 41, (R)-N-(3-(2-((1H-indol-5-yl)amino)-5-fluoropyrimidin-4-yl)-1H-indol-7-yl)-3-methoxy-2-(4-methylpiperazin-1-yl)propanamide]
9 | 0.18 nM | > 10000 nM | 447 nM | 11.3 nM | 12 nM | COC[C@H](C(=O)Nc1cccc2c(-c3nc(Nc4cnc(CO)c(OC)c4)ncc3F)c[nH]c12)N1CCN(C)CC1 [Example 34, (R)-N-(3-(5-fluoro-2-((6-(hydroxymethyl)-5-methoxypyridin-3-yl)amino)pyrimidin-4-yl)-1H-indol-7-yl)-3-methoxy-2-(4-methylpiperazin-1-yl)propanamide]
10 | 0.16 nM | 9280 nM | 1490 nM | 10.6 nM | 87 nM | COC[C@H](C(=O)Nc1cccc2c(-c3nc(Nc4ccc5[nH]ncc5c4)ncc3F)c[nH]c12)N1CCN(C)CC1 [Example 32, (R)-N-(3-(2-((1H-indazol-5-yl)amino)-5-fluoropyrimidin-4-yl)-1H-indol-7-yl)-3-methoxy-2-(4-methylpiperazin-1-yl)propanamide]
11 | 0.15 nM | > 10000 nM | 1310 nM | 10.4 nM | 218 nM | CCOC(=O)Cc1ccc(Nc2ncc(F)c(-c3c[nH]c4c(NC(=O)[C@@H](COC)N5CCN(C)CC5)cccc34)n2)cn1 [Example 31, ethyl (R)-2-(5-((5-fluoro-4-(7-(3-methoxy-2-(4-methylpiperazin-1-yl)propanamido)-1H-indol-3-yl)pyrimidin-2-yl)amino)pyridin-2-yl)acetate]
12 | 0.13 nM | > 10000 nM | 556 nM | 14 nM | 81 nM | COC[C@H](C(=O)Nc1cccc2c(-c3nc(Nc4ccc5ncsc5c4)ncc3F)c[nH]c12)N1CCN(C)CC1 [Example 47, (R)-N-(3-(2-(benzo[d]thiazol-6-ylamino)-5-fluoropyrimidin-4-yl)-1H-indol-7-yl)-3-methoxy-2-(4-methylpiperazin-1-yl)propanamide]
13 | 0.11 nM | > 10000 nM | 772 nM | 14.4 nM | 119 nM | COC[C@H](C(=O)Nc1cccc2c(-c3nc(Nc4ccc5ncoc5c4)ncc3F)c[nH]c12)N1CCN(C)CC1 [Example 50, (R)-N-(3-(2-(benzo[d]oxazol-6-ylamino)-5-fluoropyrimidin-4-yl)-1H-indol-7-yl)-3-methoxy-2-(4-methylpiperazin-1-yl)propanamide]
14 | 0.11 nM | 3590 nM | 194 nM | 17.7 nM | 8 nM | COC[C@H](C(=O)Nc1cccc2c(-c3nc(Nc4cc(CO)c5cn[nH]c5c4)ncc3F)c[nH]c12)N1CCN(C)CC1 [Example 61, (R)-N-(3-(5-fluoro-2-((4-(hydroxymethyl)-1H-indazol-6-yl)amino)pyrimidin-4-yl)-1H-indol-7-yl)-3-methoxy-2-(4-methylpiperazin-1-yl)propanamide]
15 | 0.07 nM | 5260 nM | 560 nM | 12.8 nM | 16 nM | COC[C@H](C(=O)Nc1cccc2c(-c3nc(Nc4ccc5c(c4)CCOC5=O)ncc3F)c[nH]c12)N1CCN(C)CC1 [Example 42, (R)-N-(3-(5-fluoro-2-((1-oxoisochroman-6-yl)amino)pyrimidin-4-yl)-1H-indol-7-yl)-3-methoxy-2-(4-methylpiperazin-1-yl)propanamide]
